Literature values in patent publication US20040147581A1, “Method of using a Cox-2 inhibitor and a 5-HT1A receptor modulator as a combination therapy” (Pharmacia Corporation, priority 2002, published 2004).

Test system: fibroblast growth factor-induced corneal angiogenesis
Details: rats

Cc1ccc(-c2cc(C(F)(F)F)nn2-c2ccc(S(N)(=O)=O)cc2)cc1 [Celecoxib, celecoxib]
inhibition of fibroblast growth factor-induced corneal angiogenesis: potent inhibition
